Values quoted from earlier work as cited in article PMC7918733, “Biological Profiling of Semisynthetic C19-Functionalized Ferruginol and Sugiol Analogues” (Antibiotics, 2021).

Columns and labels:
HepG2 = settings: cytotoxicity; cited from earlier work
A549 (Lung) = settings: cited from earlier work
P. falciparum K1 strain = settings: chloroquine-resistant strain; cited from earlier work
HEK293 = settings: cytotoxicity; cited from earlier work
[1] = system: L. donovani promastigotes; settings: read-out: L. donovani IC50; cited from earlier work
BJ = settings: cytotoxicity; cited from earlier work
RAJI = settings: cytotoxicity; cited from earlier work
P. falciparum 3D7 strain = settings: chloroquine-sensitive strain; cited from earlier work
Vero = settings: cited from earlier work

CC(C)c1cc2c(cc1O)[C@@]1(C)CCCC(C)(C)[C@@H]1CC2 [Compound 1, ferruginol]
EC50 (HepG2): > 25 µM
GI50 (A549 (Lung)): 30.7 ± 5.2 µM
EC50 (P. falciparum K1 strain): 1.33 µM
EC50 (HEK293): > 25 µM
IC50 [1]: 12.2 µM
EC50 (BJ): 19.6 µM
EC50 (RAJI): 11.5 µM
EC50 (P. falciparum 3D7 strain): 2.47 µM
CC50 (Vero): > 16.6 µM
